Results taken from EP0933379B1, “NOVEL PEPTIDE DERIVATIVES HAVING THIAZOLYL-ALANINE RESIDUE” (SHIONOGI & CO., LTD., priority 1996, dated 1998).

Assays:
[1] = system: reserpine-induced hypothermia mice; experiment: Anti-reserpine action after oral administration of test compounds; assay type: in vivo, mice (ddY, male); conditions: 10 µmol/kg in saline, calculated from AUC of rectal temperature over 420 min versus vehicle, reserpine 3 mg/kg s.c. 18 hours before
Description: Reserpine-induced hypothemia mice (ddY, male, body weight 30 to 40 g) were prepared by the subcutaneous administration of reserpine in back side of the […] (3 mg/kg) at 18 hours before test compounds administration. Mice with their body temperature about 25 °C were used in the experiment. Test compounds were solubilized in saline and 0.2 ml (10 µmol/kg) of them were administered by sonde for oral administration. After the administration, rectal temperature was measured at 30, 60, 120, 180, 240, 300, […]. The area under curve (AUC) of the body temperature-time profile was calculated by the general trapezoidal method. In the control experiment, vehicle (saline) was administered to mice and the rectal temperature was measured by the same protocol.
Effective dose: Dose which can increase the average of body temperatures at 1 °C for 420 min in reserpine-induced hypothermia mice.

[2] = Change of blood glucose levels after administration of the test compounds to rats; assay type: in vivo, male Wistar rats; conditions: for blood glucose level as a percentage compared to the baseline level: 50 µmol/kg intravenously, vehicle-treated rats = 100 %
Description: Fasted male Wistar rats (250-350 g) were anaesthesized with urethane. Test compounds were solubilized in saline and administered intravenously (50 µmol/kg). Body temperature of rats were kept at 37 °C by a hot blanket. After the administration, blood was collected from jugular vein at 5, 15, 30, 60, 120, 180, 240, 300, 360, 420, and 480 min and blood glucose levels were measured (BM Test blood sugar. Wako Chemical Indus.). The blood glucose levels at each sampling time in vehicle (saline)-treated rats were defined as the baseline level (100 %). […]

[3] = system: reserpine-induced hypothermia mice; experiment: Anti-reserpine action after intravenous and intracerebroventricular administration of test compounds; assay type: in vivo, mice (ddY, male); conditions: calculated from AUC of rectal temperature over 180 min versus vehicle; for Dose which can increase the average of body temperatures at 1 °C for 180 min in reserpine-induced hypothermia mice, administered intracerebroventricularly: intracerebroventricular, 0.21 µmol/kg; for Dose which can increase the average of body temperatures at 1 °C for 180 min in reserpine-induced hypothermia mice, administered intravenously: intravenous, 1 µmol/kg
Description: Recerpine-induced hypothermia mice (ddY, male) were prepared by the administration of reserpine (3 mg/kg) at 18 hours before test compounds administration. Mice with their body temperature about 25 °C were used in the experiment. Test compounds were solubilized in saline and 0.1 ml (1 µmol/kg) of them were administered intravenously and 0.005 ml (0.21 µmol/kg) of them were administered intracerebroventricularly, respectively. After the administration, rectal temperature was measured at 30, 60, 120, and 180 min. The area under curve (AUC) of the body temperature-time profile was calculated by the general trapezoidal method. In the control experiment, vehicle (saline) was administered to mice intravenously or intracerebroventricularly and the rectal temperature was measured by the same protocol.
Effective dose: Dose which can increase the average of body temperatures at 1°C for 180 min in reserpine-induced hypothermia mice.

[4] = time 0 min, fasted urethane-anaesthetized rats

| Structure (SMILES) | Dose which can increase the average of body temperatures at 1 °C for 420 min in reserpine-induced hypothermia mice (by oral) [1] [µmol/kg] | acute rise of the blood glucose level and acute fall by the rebound ([2]; result in words, general description) | blood glucose level as a percentage compared to the baseline level [2, 4] [%] | blood glucose level as a percentage compared to the baseline level ([2]; time 5 min) [%] | blood glucose level as a percentage compared to the baseline level ([2]; time 15 min) [%] | blood glucose level as a percentage compared to the baseline level ([2]; time 30 min) [%] | blood glucose level as a percentage compared to the baseline level ([2]; time 60 min) [%] | blood glucose level as a percentage compared to the baseline level ([2]; time 120 min) [%] | blood glucose level as a percentage compared to the baseline level ([2]; time 180 min) [%] | blood glucose level as a percentage compared to the baseline level ([2]; time 240 min) [%] | blood glucose level as a percentage compared to the baseline level ([2]; time 300 min) [%] | blood glucose level as a percentage compared to the baseline level ([2]; time 360 min) [%] | blood glucose level as a percentage compared to the baseline level ([2]; time 420 min) [%] | blood glucose level as a percentage compared to the baseline level ([2]; time 480 min) [%] | Dose which can increase the average of body temperatures at 1 °C for 180 min in reserpine-induced hypothermia mice, administered intracerebroventricularly [3] [µmol/kg] | Dose which can increase the average of body temperatures at 1 °C for 180 min in reserpine-induced hypothermia mice, administered intravenously [3] [µmol/kg] |
| --- | --- | --- | --- | --- | --- | --- | --- | --- | --- | --- | --- | --- | --- | --- | --- | --- |
| C[C@H]1OC(=O)N(CN2CCOCC2)[C@H]1C(=O)N[C@@H](Cc1cscn1)C(=O)N1CCC[C@H]1C(N)=O (mixture of isomers) [I-40, cis-L-3-morpholinomethyl-5-methyl-2-oxo-oxazolidine-4-yl-carbonyl-3-(4-thiazolyl)-L-alanyl-L-prolineamide] | 1.65 | – | – | – | – | – | – | – | – | – | – | – | – | – | – | – |
| NC(=O)[C@@H]1CCCN1C(=O)[C@H](Cc1cnc[nH]1)NC(=O)[C@@H]1CCC(=O)N1 [TRH, L-pyroglutamyl-L-histidyl-L-prolineamide] | 42.68 | acutely raises up the blood glucose level | 116.3 | 114.6 | 123.3 | 137.9 | 153.5 | 139.1 | 119.1 | 112.6 | 113.2 | 103.5 | 102.6 | 97.1 | 0.033 | 9.84 |
| C[C@@H]1OC(=O)N[C@@H]1C(=O)N[C@@H](Cc1cscn1)C(=O)N1CSC[C@H]1C(N)=O [I-11] | 2.03 | – | – | – | – | – | – | – | – | – | – | – | – | – | – | – |
| CN1C(=O)C[C@@H](C(=O)N[C@@H](Cc2cscn2)C(=O)N2CSC[C@H]2C(N)=O)NC1=O [I-5] | 1.22 | – | – | – | – | – | – | – | – | – | – | – | – | – | – | – |
| C[C@H]1OC(=O)N[C@H]1C(=O)N[C@@H](Cc1cscn1)C(=O)N1CCC[C@H]1C(N)=O (mixture of isomers) [I-10, cis-L-5-methyl-2-oxo-oxazolidine-4-yl-carbonyl-3-(4-thiazolyl)-L-alanyl-L-prolineamide] | 1.14 | – | 107.7 | 119.9 | 104.3 | 109.1 | 112.1 | 126.5 | 105.3 | 110.9 | 104.0 | 100.4 | 102.6 | 111.8 | 0.025 | 0.11 |
| CC(C)OC(=O)CNC(=O)[C@@H]1CCCN1C(=O)[C@H](Cc1cscn1)NC(=O)[C@H]1NC(=O)O[C@H]1C [I-30] | 2.59 | – | – | – | – | – | – | – | – | – | – | – | – | – | – | – |
